From PubChem BioAssay AID463206 (Broad Institute, 2010)
The source made the active and inactive calls.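 How the source made its calls: active means caspase luminescence falls with dose and the half-maximal concentration AC50 from the fitted curve is at or below a set limit; inconclusive means flat fit at 30 to 70% signal loss, or invalid fit; inactive means AC50 above the limit, or signal rises instead.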

tested on: INS-1E cytokine-induced caspase-3/7, Caspase-Glo luminescence, 48 h; experiment: inhibitors of cytokine-induced caspase-3/7 activity, dose response, orthogonal assay for beta-cell apoptosis protection project, INS-1E rat cells, luminescence (AID 463206)

| Compound | AC50 |
| --- | --- |
| Cc1nc2c3cc(F)ccc3n(Cc3ccccc3)c2s1 | > 26 µM (inactive) |
| Nc1ccccc1C#CC(=O)c1ccccc1 | > 26 µM (inactive) |
| O=C(C(Cl)Cl)N1c2ccccc2OCC1c1ccccc1 (centres undefined) | > 26 µM (inactive) |
| Oc1[nH]c2ccccc2c1N=NC(=S)N1CCOCC1 | > 26 µM (inactive) |
| Oc1ccc2ccccc2c1N=Nc1ccccn1 | > 26 µM (inactive) |
| Cc1nc(N/N=C/c2ccccn2)sc1C | > 26 µM (inactive) |
| Nc1ccc(Br)cc1-c1nc2ccccc2[nH]c1=O | > 26 µM (inactive) |
| CCCCCCCC(=O)Nc1ccc(C(=O)N/N=C/c2cccc([N+](=O)[O-])c2)cc1 | > 26 µM (inactive) |
| CCc1ccc(C2CC(c3cccc(Cl)c3)n3nc(N)nc3N2)cc1 (centres undefined) | > 12 µM (inactive) |
| Cc1cc(C)nc(N/N=C2/CCCC/C2=C\c2ccccc2)n1 | > 26 µM (inactive) |
| CNc1nc2cc([N+](=O)[O-])c([N+](=O)[O-])cc2nc1NC | > 26 µM (inactive) |
| COc1cccc(/C=N/Nc2nc3ccccc3n3cnnc23)c1O | > 26 µM (inactive) |
| COc1ccc(C(=O)C/C(=C\C(=O)c2ccc(C)cc2)c2ccccc2)cc1 | > 26 µM (inactive) |
| COc1cccc(C(=O)Oc2c(Br)cc(Br)cc2/C=N/NC(=O)c2cc(C)[nH]n2)c1 | > 26 µM (inactive) |
| Cc1cc(N)c2cc(NC(=O)/C=C/c3ccccc3Cl)ccc2n1 | 23 µM |
| O=C(NC(Nc1nc2ccc([N+](=O)[O-])cc2s1)(C(F)(F)F)C(F)(F)F)c1ccccc1 | > 26 µM (inactive) |
| COc1cc(CNCCO)cc(Cl)c1OCc1ccc(Cl)cc1Cl | > 26 µM (inactive) |
| COc1cc(NC(=O)COc2cc(O)c3c(c2)OC(C)(C)CC3=O)cc(OC)c1OC | > 26 µM (inactive) |
| Cc1ccc2nc(-c3ccc(NC(=O)c4cccnc4)cc3)oc2c1 | > 26 µM (inactive) |
| CCN(CC)S(=O)(=O)c1cc(NC(=O)CNc2cccc(S(=O)(=O)N3CCCC3)c2)ccc1C | > 26 µM (inactive) |
| NC(=S)N/N=C/c1ccc(C23CC4CC(CC(C4)C2)C3)cc1 | > 26 µM (inactive) |
| Nc1nc(-c2ccccn2)nc(N)c1Cc1ccc(Cl)cc1Cl | > 26 µM (inactive) |
| O=S(=O)(Nc1nc2ccccc2s1)c1ccc(Cl)s1 | > 26 µM (inactive) |
| Oc1c(C(Nc2ccccn2)c2ccccn2)ccc2cccnc12 (centres undefined) | > 12 µM (inactive) |
| C/C(=N\NC(=O)c1ccoc1C)c1ccccc1O | > 26 µM (inactive) |

| Compound | AC50 |
| --- | --- |
| COc1cccc(CN(C)C(=O)c2cc(COc3ccc4ncccc4c3)on2)c1 | > 26 µM (inactive) |
| CCCC(=O)NC(NC(=S)Nc1ccc(N=Nc2ccccc2)cc1)C(Cl)(Cl)Cl (centres undefined) | > 26 µM (inactive) |
| COc1ccccc1/C=C1\SC(=O)N(CCC(=O)NCCCn2ccnc2)C1=O | > 26 µM (inactive) |
| Cc1ccc2c(c1)c(/C=C/c1cc[n+](C)cc1)c(C)n2C | > 26 µM (inactive) |
| CC[C@H]1CN2CCc3cc(OC)c(OC)cc3[C@@H]2C[C@@H]1C[C@H]1NCCc2cc(OC)c(OC)cc21 | > 26 µM (inactive) |
| O=C(Nc1nc2ccccc2[nH]1)c1ccccc1F | > 26 µM (inactive) |
| Cc1ccc(C)c(NC(=S)NC(NC(=O)Cc2cccc3ccccc23)C(Cl)(Cl)Cl)c1 (centres undefined) | > 26 µM (inactive) |
| COc1ccc(-c2n(Cc3ccccc3)c3ccccc3[n+]2Cc2ccccc2)cc1 | > 26 µM (inactive) |
| O=[N+]([O-])/C=C/c1cn(Cc2ccc(F)cc2)c2ccccc12 | > 26 µM (inactive) |
| Cc1ccccc1Nc1c(-c2ccccn2)nc2c(C)cccn12 | > 26 µM (inactive) |
| C#CC(=O)N(c1cccc(OC)c1)C(C(=O)NC1CCCC1)c1cccs1 (centres undefined) | > 26 µM (inactive) |
| COc1cnc(-c2ccccn2)nc1N(C)c1ccccc1 | > 26 µM (inactive) |
| CNC[C@@H](CC1CCCCC1)NC[C@H](CC(C)C)NCCc1cccc(C(F)(F)F)c1 | > 26 µM (inactive) |
| O=C(N/N=C/c1cc(Br)cc(Br)c1O)c1ccncc1 | > 26 µM (inactive) |
| CCCCn1c(/C=N/Nc2nc3ccccc3[nH]2)nc2ccccc21 | > 26 µM (inactive) |
| CC(C)(C)c1ccc(NNC(=O)C2CCC2)cc1 | > 26 µM (inactive) |
| COc1ccc(N/N=C(/N=Nc2nc(C)cc(=O)[nH]2)c2ccccc2)cc1 | > 26 µM (inactive) |
| c1ccc2c(c1)ncn2CCCCOc1ccc2c(c1)CCC2 | > 26 µM (inactive) |
| COc1ccc(-c2ccnc(SCC(=O)N3CCN(c4ccccc4)CC3)n2)cc1 | > 26 µM (inactive) |
| Cc1cc(F)ccc1S(=O)(=O)Nc1ccccc1C(=O)Nc1ccccc1-c1nc2ccccc2[nH]1 | > 26 µM (inactive) |
| CCc1ccc2[nH]c(=O)c(C3C(C#N)=C(N)Oc4c3ccc3cccnc43)cc2c1 (centres undefined) | > 26 µM (inactive) |
| CCC(=O)NC(c1cc(Cl)c2cccnc2c1O)C1CC1 (centres undefined) | > 26 µM (inactive) |
| CCOc1cccc(/C=N/Nc2ccc(S(=O)(=O)N(CC)CC)cn2)c1O | > 26 µM (inactive) |
| c1ccc(CCNc2ncnc3ccccc23)cc1 | > 26 µM (inactive) |
